The nature of the data set: dynamic vapor sorption (DVS) scan of crystalline forms. In kind it is physicochemical. The note with it: up to 95% relative humidity. An excerpt:
FIG. 4 depicts a dynamic vapor sorption (DVS) scan for crystalline Form I of Compound 7 of the invention (VTI dynamic vapor sorption analyzer).
FIG. 8 depicts a dynamic vapor sorption (DVS) scan for crystalline Form I Compound 9 of the invention (VTI dynamic vapor sorption analyzer).

For `COc1cccc(C(=O)Nc2ccc(OCCN3CCOCC3)c(-c3ccnn3C)c2)c1` [Compound 7 Form I, 4-(2-(4-(3-methoxybenzamido)-2-(1-methyl-1H-pyrazol-5-yl)phenoxy)ethyl)morpholin-4-ium chloride], the DVS hygroscopicity result was “FIG. 4: Non-hygroscopic;”.

Values taken from patent US9199940B2, “Crystalline forms and processes for the preparation of phenyl-pyrazoles useful as modulators of the 5-HT2A serotonin receptor” (Arena Pharmaceuticals, Inc., priority 2006, dated 2015).
